In patent publication US20080009418A1, “Selective Inhibitors” (Alchemia LTD., priority 2004, published 2008):

Key:
Conditions in all cases: compound at 10 μM
[1] = biological target: T1, Human Melanocortin (MC3) (Homo sapiens, UniProt P41968); assay: Radioligand binding, human melanocortin MC3 membranes, FlashPlate, [125I]-NDP-αMSH
T1 construct: purchased Perkin Elmer Biosignal
In short: (§1)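 Cloned human receptor membranes were coated onto FlashPlate wells and incubated with radioligand and compound (added from a 0.5 mM DMSO daughter plate) for 1 hour at room temperature in the dark. Scintillation counting gave percent inhibition, with DMSO defining total and reference ligand defining non-specific binding.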

[2] = biological target: T2, Human neuropeptide Y (NPY-Y1) (Homo sapiens, UniProt P25929); assay: Radioligand binding, human neuropeptide Y NPY-Y1 membranes, FlashPlate, [125I]-PYY
T2 construct: purchased Perkin Elmer Biosignal
T2 sequence (P25929 1-384): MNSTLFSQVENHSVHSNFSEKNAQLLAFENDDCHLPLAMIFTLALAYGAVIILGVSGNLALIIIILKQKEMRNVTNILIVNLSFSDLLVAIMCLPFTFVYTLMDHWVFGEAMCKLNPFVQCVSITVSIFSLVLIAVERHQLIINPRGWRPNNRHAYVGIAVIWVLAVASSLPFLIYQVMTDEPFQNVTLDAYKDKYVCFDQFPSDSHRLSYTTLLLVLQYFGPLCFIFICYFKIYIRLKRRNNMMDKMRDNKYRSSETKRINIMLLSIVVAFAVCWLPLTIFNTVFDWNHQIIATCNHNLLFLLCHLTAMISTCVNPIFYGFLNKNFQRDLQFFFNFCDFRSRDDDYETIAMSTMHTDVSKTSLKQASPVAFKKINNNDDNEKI
In short: as §1

[3] = biological target: T3, Human μ-opioid (MOP) (Homo sapiens, UniProt P35372); assay: Radioligand binding, human μ-opioid (MOP) membranes, FlashPlate, [3H]-Naloxone
T3 construct: purchased Perkin Elmer Biosignal
T3 sequence (P35372 whole entry): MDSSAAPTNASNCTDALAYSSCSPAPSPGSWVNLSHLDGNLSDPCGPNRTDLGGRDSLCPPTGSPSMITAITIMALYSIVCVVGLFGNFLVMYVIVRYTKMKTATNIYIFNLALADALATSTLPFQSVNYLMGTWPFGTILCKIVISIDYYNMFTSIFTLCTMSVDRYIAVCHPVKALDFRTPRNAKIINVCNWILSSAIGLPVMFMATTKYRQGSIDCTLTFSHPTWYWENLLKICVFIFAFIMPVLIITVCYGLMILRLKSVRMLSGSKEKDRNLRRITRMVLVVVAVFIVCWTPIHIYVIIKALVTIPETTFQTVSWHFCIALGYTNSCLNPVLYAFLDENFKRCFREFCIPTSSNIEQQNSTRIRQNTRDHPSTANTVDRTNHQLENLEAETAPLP
In short: as §1

[4] = biological target: T4, Human neurokinin (NK1) (Homo sapiens, UniProt P25103); assay: Radioligand binding, human neurokinin NK1 membranes, filtration, [125I]-Substance P
T4 construct: purchased Perkin Elmer Biosignal
T4 sequence (P25103 whole entry): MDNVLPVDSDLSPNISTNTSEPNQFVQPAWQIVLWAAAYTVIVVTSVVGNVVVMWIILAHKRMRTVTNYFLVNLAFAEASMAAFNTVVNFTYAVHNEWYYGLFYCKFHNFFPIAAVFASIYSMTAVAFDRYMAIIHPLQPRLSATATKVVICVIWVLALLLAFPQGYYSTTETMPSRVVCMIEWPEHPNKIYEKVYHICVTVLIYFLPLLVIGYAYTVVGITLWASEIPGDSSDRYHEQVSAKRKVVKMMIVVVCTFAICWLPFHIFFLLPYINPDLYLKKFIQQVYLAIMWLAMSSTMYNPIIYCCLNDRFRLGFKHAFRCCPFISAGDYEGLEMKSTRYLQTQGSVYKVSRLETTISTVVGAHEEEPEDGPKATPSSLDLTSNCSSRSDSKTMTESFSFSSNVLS
In short: (§2)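 Filtration binding on cloned human receptor membranes (1 Unit/well), [125I]-Substance P for NK1 and [3H]-Diprenorphine for KOP, 1 h at room temperature. Filters PEI-presoaked, washed with cold 50 mM Tris-HCl pH 7.4, counted by scintillation; percent inhibition calculated, reference ligand defining non-specific binding.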

[5] = biological target: T5, Human melanocortin (MC5) (Homo sapiens, UniProt P33032); assay: Radioligand binding, human melanocortin MC5 membranes, FlashPlate, [125I]-NDP-αMSH
T5 construct: purchased Perkin Elmer Biosignal
T5 sequence (P33032 whole entry): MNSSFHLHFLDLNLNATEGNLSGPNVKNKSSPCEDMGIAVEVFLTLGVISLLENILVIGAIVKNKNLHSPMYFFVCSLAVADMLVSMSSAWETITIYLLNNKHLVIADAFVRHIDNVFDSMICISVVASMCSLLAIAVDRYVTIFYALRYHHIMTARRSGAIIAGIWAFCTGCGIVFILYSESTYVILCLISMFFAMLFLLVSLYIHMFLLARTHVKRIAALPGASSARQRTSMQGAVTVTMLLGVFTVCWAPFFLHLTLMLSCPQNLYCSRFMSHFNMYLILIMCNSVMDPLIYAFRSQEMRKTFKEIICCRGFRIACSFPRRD
In short: as §1

[6] = biological target: T6, Human κ-Opioid (KOP) (Homo sapiens, UniProt P41145); assay: Radioligand binding, human κ-opioid (KOP) membranes, filtration, [3H]-Diprenorphine
T6 construct: purchased Perkin Elmer Biosignal
T6 sequence (P41145 whole entry): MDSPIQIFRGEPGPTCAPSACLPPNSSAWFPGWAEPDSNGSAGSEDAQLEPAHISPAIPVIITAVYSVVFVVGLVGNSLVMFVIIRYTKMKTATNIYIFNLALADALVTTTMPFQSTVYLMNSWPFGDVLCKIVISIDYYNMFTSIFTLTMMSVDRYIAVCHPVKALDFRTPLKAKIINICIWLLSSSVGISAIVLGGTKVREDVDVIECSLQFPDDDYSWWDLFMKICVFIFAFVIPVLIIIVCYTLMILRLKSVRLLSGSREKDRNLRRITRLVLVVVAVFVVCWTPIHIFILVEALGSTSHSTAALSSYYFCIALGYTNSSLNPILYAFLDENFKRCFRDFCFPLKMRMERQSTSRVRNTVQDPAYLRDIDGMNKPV
In short: as §2

[7] = biological target: T7, Mouse urotensin (mUR2) (Mus musculus, UniProt Q8VIH9); assay: Radioligand binding, mouse urotensin mUR2 membranes, FlashPlate, [125I]-Urotensin II
T7 construct: purchased Perkin Elmer Biosignal
T7 sequence (Q8VIH9 1-385): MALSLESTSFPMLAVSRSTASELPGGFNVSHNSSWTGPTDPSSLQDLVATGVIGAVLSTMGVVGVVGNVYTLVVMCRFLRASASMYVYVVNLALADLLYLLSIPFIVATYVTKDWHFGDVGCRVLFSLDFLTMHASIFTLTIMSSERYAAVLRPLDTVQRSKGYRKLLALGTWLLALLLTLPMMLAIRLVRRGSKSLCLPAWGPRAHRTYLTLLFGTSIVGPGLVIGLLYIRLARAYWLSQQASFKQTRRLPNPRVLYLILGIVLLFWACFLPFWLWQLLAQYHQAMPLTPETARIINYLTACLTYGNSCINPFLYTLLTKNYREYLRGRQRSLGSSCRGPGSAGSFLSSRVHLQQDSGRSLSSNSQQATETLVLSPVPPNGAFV
In short: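 Cloned mouse urotensin (mUR2) receptor membranes from Perkin Elmer Biosignal were immobilized in FlashPlate microplates using a proprietary coating. Each well got 19.5 μl buffer, then 0.5 μl of DMSO, reference ligand, or compound. Adding 5 μl of [125I]-Urotensin II, diluted to 5× final concentration in binding buffer, started binding. Plates were sealed with TopSeal-A and incubated 1 hour at room temperature in the dark. Wells were counted for 30 seconds each on a TopCount after a 60-second delay, and percentage inhibition was calculated.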

[8] = biological target: T8, Human opioid (ORL1) (Homo sapiens, UniProt P41146); assay: Radioligand binding, human opioid ORL1 membranes, FlashPlate, [125I]-Nociceptin
T8 construct: purchased Perkin Elmer Biosignal
T8 sequence (P41146 whole entry): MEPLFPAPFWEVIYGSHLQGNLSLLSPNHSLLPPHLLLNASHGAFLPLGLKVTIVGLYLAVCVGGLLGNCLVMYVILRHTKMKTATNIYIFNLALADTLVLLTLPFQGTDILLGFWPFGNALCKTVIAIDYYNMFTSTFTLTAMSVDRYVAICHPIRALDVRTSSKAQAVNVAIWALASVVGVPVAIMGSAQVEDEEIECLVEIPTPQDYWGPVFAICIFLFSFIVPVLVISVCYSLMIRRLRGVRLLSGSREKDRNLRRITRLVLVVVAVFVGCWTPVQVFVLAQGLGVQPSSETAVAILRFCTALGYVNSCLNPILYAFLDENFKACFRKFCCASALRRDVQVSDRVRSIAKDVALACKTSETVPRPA
In short: as §1

[9] = biological target: T9, Human melanin-concentrating hormone (MCH1) (Homo sapiens, UniProt Q99705); assay: Radioligand binding, human melanin-concentrating hormone MCH1 membranes, FlashPlate, [125I]-S36057
T9 construct: purchased Perkin Elmer Biosignal
T9 sequence (Q99705 whole entry): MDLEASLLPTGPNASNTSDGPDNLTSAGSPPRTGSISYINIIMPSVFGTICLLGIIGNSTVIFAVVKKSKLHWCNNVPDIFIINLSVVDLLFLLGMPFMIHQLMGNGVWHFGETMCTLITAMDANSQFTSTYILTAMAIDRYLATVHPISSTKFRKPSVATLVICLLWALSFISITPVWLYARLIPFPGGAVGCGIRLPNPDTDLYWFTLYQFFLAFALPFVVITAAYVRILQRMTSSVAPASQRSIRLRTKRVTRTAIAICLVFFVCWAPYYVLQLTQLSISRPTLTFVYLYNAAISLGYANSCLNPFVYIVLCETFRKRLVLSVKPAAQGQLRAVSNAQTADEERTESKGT
In short: as §1

[10] = biological target: T10, Human Melanocortin (MC4) (Homo sapiens, UniProt P32245); assay: Radioligand binding, human melanocortin MC4 membranes, FlashPlate, [125I]-NDP-αMSH
T10 construct: purchased Perkin Elmer Biosignal
T10 sequence (P32245 whole entry): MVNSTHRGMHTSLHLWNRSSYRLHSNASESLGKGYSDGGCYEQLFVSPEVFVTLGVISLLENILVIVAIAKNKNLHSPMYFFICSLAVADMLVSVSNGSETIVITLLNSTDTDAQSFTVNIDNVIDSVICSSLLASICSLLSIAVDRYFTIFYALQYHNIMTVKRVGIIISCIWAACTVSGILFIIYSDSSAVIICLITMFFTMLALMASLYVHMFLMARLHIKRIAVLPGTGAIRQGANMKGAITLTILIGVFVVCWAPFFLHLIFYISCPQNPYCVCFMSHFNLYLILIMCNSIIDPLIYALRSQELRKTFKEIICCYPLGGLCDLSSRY
In short: as §1

[11] = biological target: T11, Human δ-opioid (DOP) (Homo sapiens, UniProt P41143); assay: Radioligand binding, human δ-opioid (DOP) membranes, FlashPlate, [3H]-Bremazocine
T11 construct: purchased Perkin Elmer Biosignal
T11 sequence (P41143 whole entry): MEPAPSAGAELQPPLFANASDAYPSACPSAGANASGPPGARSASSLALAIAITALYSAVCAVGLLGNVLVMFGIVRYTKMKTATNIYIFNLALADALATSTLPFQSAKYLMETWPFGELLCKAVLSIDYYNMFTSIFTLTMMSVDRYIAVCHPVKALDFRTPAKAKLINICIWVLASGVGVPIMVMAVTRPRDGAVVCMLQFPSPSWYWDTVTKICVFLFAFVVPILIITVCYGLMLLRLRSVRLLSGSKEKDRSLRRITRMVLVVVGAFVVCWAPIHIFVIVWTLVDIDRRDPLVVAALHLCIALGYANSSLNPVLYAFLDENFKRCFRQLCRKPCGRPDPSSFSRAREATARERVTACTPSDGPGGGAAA
In short: as §1

T1 sequence (P41968 whole entry): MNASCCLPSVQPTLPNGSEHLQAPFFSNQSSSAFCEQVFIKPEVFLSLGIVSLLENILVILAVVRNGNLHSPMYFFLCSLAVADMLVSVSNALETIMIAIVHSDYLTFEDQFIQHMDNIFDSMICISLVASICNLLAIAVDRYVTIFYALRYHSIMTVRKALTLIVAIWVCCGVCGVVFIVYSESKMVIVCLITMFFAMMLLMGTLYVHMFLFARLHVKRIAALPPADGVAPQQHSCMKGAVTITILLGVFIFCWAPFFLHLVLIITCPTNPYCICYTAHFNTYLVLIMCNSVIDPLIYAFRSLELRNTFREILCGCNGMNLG

Structure (SMILES): N=C(N)NCC(=O)NC1C(OCc2ccc(Cl)cc2)OC(COCc2ccc(Cl)cc2)C(O)C1OCc1ccc(-c2ccccc2)cc1 (stereo not shown) [compound 425]
- A3: inhibition of radioligand binding ([1]; [125I]-NDP-αMSH, human MC3 membranes): + (“+” indicates greater than 50% inhibition at 10 μM)
- A9: inhibition of radioligand binding ([2]; [125I]-PYY, human NPY-Y1 membranes): − (“−” indicates less than 50% inhibition at 10 μM)
- A7: inhibition of radioligand binding ([3]; [3H]-Naloxone, human MOP membranes): − (“−” indicates less than 50% inhibition at 10 μM)
- A8: inhibition of radioligand binding ([4]; [125I]-Substance P, human NK1 membranes): + (“+” indicates greater than 50% inhibition at 10 μM)
- A5: inhibition of radioligand binding ([5]; [125I]-NDP-αMSH, human MC5 membranes): + (“+” indicates greater than 50% inhibition at 10 μM)
- A2: inhibition of radioligand binding ([6]; [3H]-Diprenorphine, human KOP membranes): − (“−” indicates less than 50% inhibition at 10 μM)
- A11: inhibition of radioligand binding ([7]; [125I]-Urotensin II, mouse mUR2 membranes): − (“−” indicates less than 50% inhibition at 10 μM)
- A10: inhibition of radioligand binding ([8]; [125I]-Nociceptin, human ORL1 membranes): + (“+” indicates greater than 50% inhibition at 10 μM)
- A6: inhibition of radioligand binding ([9]; [125I]-S36057, human MCH1 membranes): + (“+” indicates greater than 50% inhibition at 10 μM)
- A4: inhibition of radioligand binding ([10]; [125I]-NDP-αMSH, human MC4 membranes): + (“+” indicates greater than 50% inhibition at 10 μM)
- A1: inhibition of radioligand binding ([11]; [3H]-Bremazocine, human DOP membranes): − (“−” indicates less than 50% inhibition at 10 μM)

Structure (SMILES): CO[C@H]1[C@H](O)[C@@H](COCc2ccccc2)OC(OCc2ccc(-c3ccccc3)cc2)[C@@H]1NC(=O)CCCNC(=N)N (stereo partly shown) [compound 61]
- A3 radioligand binding inhibition ([1]; human melanocortin MC3 membranes): − (“−” indicates less than 50% inhibition at 10 μM)
- A9 radioligand binding inhibition ([2]; human NPY-Y1 membranes): − (“−” indicates less than 50% inhibition at 10 μM)
- A7 radioligand binding inhibition ([3]; human μ-opioid (MOP) membranes): + (“+” indicates greater than 50% inhibition at 10 μM)
- A8 radioligand binding inhibition ([4]; human neurokinin NK1 membranes): + (“+” indicates greater than 50% inhibition at 10 μM)
- A5 radioligand binding inhibition ([5]; human melanocortin MC5 membranes): + (“+” indicates greater than 50% inhibition at 10 μM)
- A2 radioligand binding inhibition ([6]; human κ-opioid (KOP) membranes): + (“+” indicates greater than 50% inhibition at 10 μM)
- A11 radioligand binding inhibition ([7]; mouse urotensin mUR2 membranes): − (“−” indicates less than 50% inhibition at 10 μM)
- A10 radioligand binding inhibition ([8]; human ORL1 membranes): − (“−” indicates less than 50% inhibition at 10 μM)
- A6 radioligand binding inhibition ([9]; human MCH1 membranes): − (“−” indicates less than 50% inhibition at 10 μM)
- A4 radioligand binding inhibition ([10]; human melanocortin MC4 membranes): − (“−” indicates less than 50% inhibition at 10 μM)
- A1 radioligand binding inhibition ([11]; human δ-opioid (DOP) membranes): − (“−” indicates less than 50% inhibition at 10 μM)

Structure (SMILES): NCCCC(=O)NC1C(OCc2ccccc2)OC(COCc2ccc3ccccc3c2)C(O)C1OCc1ccc(Cl)cc1 (stereo not shown) [compound 372]
- A3: inhibition of radioligand binding, human melanocortin (MC3) ([1]; [125I]-NDP-αMSH): − (“−” indicates less than 50% inhibition at 10 μM)
- A9: inhibition of radioligand binding, human neuropeptide Y (NPY-Y1) ([2]; [125I]-PYY): − (“−” indicates less than 50% inhibition at 10 μM)
- A7: inhibition of radioligand binding, human μ-opioid (MOP) ([3]; [3H]-Naloxone): − (“−” indicates less than 50% inhibition at 10 μM)
- A8: inhibition of radioligand binding, human neurokinin (NK1) ([4]; [125I]-Substance P): + (“+” indicates greater than 50% inhibition at 10 μM)
- A5: inhibition of radioligand binding, human melanocortin (MC5) ([5]; [125I]-NDP-αMSH): + (“+” indicates greater than 50% inhibition at 10 μM)
- A2: inhibition of radioligand binding, human κ-opioid (KOP) ([6]; [3H]-Diprenorphine): − (“−” indicates less than 50% inhibition at 10 μM)
- A11: inhibition of radioligand binding, mouse urotensin (mUR2) ([7]; [125I]-Urotensin II): − (“−” indicates less than 50% inhibition at 10 μM)
- A10: inhibition of radioligand binding, human opioid (ORL1) ([8]; [125I]-Nociceptin): − (“−” indicates less than 50% inhibition at 10 μM)
- A6: inhibition of radioligand binding, human melanin-concentrating hormone (MCH1) ([9]; [125I]-S36057): − (“−” indicates less than 50% inhibition at 10 μM)
- A4: inhibition of radioligand binding, human melanocortin (MC4) ([10]; [125I]-NDP-αMSH): + (“+” indicates greater than 50% inhibition at 10 μM)
- A1: inhibition of radioligand binding, human δ-opioid (DOP) ([11]; [3H]-Bremazocine): − (“−” indicates less than 50% inhibition at 10 μM)

Structure (SMILES): COCC1OC(OCc2ccccc2)C(NC(=O)CCCNC(=N)N)C(OCc2ccc(-c3ccccc3)cc2)C1O (stereo not shown) [compound 187]
- A3 radioligand binding, percentage inhibition ([1]; [125I]-NDP-αMSH): − (“−” indicates less than 50% inhibition at 10 μM)
- A9 radioligand binding, percentage inhibition ([2]; [125I]-PYY): − (“−” indicates less than 50% inhibition at 10 μM)
- A7 radioligand binding, percentage inhibition ([3]; [3H]-Naloxone): − (“−” indicates less than 50% inhibition at 10 μM)
- A8 radioligand binding, percentage inhibition ([4]; [125I]-Substance P): + (“+” indicates greater than 50% inhibition at 10 μM)
- A5 radioligand binding, percentage inhibition ([5]; [125I]-NDP-αMSH): + (“+” indicates greater than 50% inhibition at 10 μM)
- A2 radioligand binding, percentage inhibition ([6]; [3H]-Diprenorphine): − (“−” indicates less than 50% inhibition at 10 μM)
- A11 radioligand binding, percentage inhibition ([7]; [125I]-Urotensin II): − (“−” indicates less than 50% inhibition at 10 μM)
- A10 radioligand binding, percentage inhibition ([8]; [125I]-Nociceptin): − (“−” indicates less than 50% inhibition at 10 μM)
- A6 radioligand binding, percentage inhibition ([9]; [125I]-S36057): + (“+” indicates greater than 50% inhibition at 10 μM)
- A4 radioligand binding, percentage inhibition ([10]; [125I]-NDP-αMSH): + (“+” indicates greater than 50% inhibition at 10 μM)
- A1 radioligand binding, percentage inhibition ([11]; [3H]-Bremazocine): − (“−” indicates less than 50% inhibition at 10 μM)

Structure (SMILES): CO[C@H]1[C@H](O)[C@@H](COCc2ccc(Cl)cc2)OC(OCCc2ccccc2)[C@@H]1NC(=O)CCNC(=N)N (stereo partly shown) [compound 120]
- A3 radioligand binding, percentage inhibition ([1]; [125I]-NDP-αMSH): − (“−” indicates less than 50% inhibition at 10 μM)
- A9 radioligand binding, percentage inhibition ([2]; [125I]-PYY): − (“−” indicates less than 50% inhibition at 10 μM)
- A7 radioligand binding, percentage inhibition ([3]; [3H]-Naloxone): − (“−” indicates less than 50% inhibition at 10 μM)
- A8 radioligand binding, percentage inhibition ([4]; [125I]-Substance P): + (“+” indicates greater than 50% inhibition at 10 μM)
- A5 radioligand binding, percentage inhibition ([5]; [125I]-NDP-αMSH): + (“+” indicates greater than 50% inhibition at 10 μM)
- A2 radioligand binding, percentage inhibition ([6]; [3H]-Diprenorphine): + (“+” indicates greater than 50% inhibition at 10 μM)
- A11 radioligand binding, percentage inhibition ([7]; [125I]-Urotensin II): − (“−” indicates less than 50% inhibition at 10 μM)
- A10 radioligand binding, percentage inhibition ([8]; [125I]-Nociceptin): − (“−” indicates less than 50% inhibition at 10 μM)
- A6 radioligand binding, percentage inhibition ([9]; [125I]-S36057): − (“−” indicates less than 50% inhibition at 10 μM)
- A4 radioligand binding, percentage inhibition ([10]; [125I]-NDP-αMSH): + (“+” indicates greater than 50% inhibition at 10 μM)
- A1 radioligand binding, percentage inhibition ([11]; [3H]-Bremazocine): − (“−” indicates less than 50% inhibition at 10 μM)
